The results in this text go back to US20130203756A1, “ISOINDOLINE PDE10 INHIBITORS” (priority 2010, published 2013).

For this experiment, the target named is T1, human PDE10A2 (Homo sapiens, UniProt Q9Y233).
T1 construct: made in house; host or cells: AD293 cells, transient transfection; cytosolic supernatant of the sonicated lysate used as enzyme
T1 sequence (Q9Y233 267-1055): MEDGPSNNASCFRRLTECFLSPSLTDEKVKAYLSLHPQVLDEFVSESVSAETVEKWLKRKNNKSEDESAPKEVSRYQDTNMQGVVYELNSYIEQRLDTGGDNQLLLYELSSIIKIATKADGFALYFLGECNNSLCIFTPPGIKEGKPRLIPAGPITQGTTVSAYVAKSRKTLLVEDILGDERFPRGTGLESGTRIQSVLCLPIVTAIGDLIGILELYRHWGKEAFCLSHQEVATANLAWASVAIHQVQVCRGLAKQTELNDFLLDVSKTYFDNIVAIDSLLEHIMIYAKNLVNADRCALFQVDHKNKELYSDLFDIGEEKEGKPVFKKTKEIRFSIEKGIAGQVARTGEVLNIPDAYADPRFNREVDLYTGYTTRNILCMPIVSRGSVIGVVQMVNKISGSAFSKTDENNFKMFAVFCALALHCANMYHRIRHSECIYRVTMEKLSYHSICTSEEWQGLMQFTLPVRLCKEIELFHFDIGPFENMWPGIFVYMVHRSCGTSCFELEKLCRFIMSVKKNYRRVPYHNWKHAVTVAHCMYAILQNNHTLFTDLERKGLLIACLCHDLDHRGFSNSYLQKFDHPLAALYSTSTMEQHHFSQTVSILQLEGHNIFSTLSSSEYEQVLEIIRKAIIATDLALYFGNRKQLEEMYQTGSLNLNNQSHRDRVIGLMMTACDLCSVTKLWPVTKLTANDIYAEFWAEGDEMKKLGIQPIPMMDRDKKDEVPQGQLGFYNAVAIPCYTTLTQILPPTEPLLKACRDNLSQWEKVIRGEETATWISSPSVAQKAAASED
Kind of experiment: PDE10 inhibitory activity, IMAP fluorescence polarization (FP) assay. Type of experiment: biochemical. The note with it: apparent inhibition constant, FAM-labeled cAMP 50 nM, room temperature, read-out: PDE10A Ki. The procedure: The activity of the compounds in accordance with the present invention as PDE10 inhibitors may be readily determined without undue experimentation using a fluorescence polarization (FP) methodology that is well known in the art (Huang, W., et al., J. Biomol Screen, 2002, 7: 215).
In a typical experiment the PDE 10 inhibitory activity of the compounds of the present invention was determined in accordance with the following experimental method. PDE10A2 was amplified from human fetal brain cDNA (Clontech, Mountain View, Calif.) using a forward primer corresponding to nucleotides 56-77 of human PDE10A2 (Accession No. AF127480, Genbank Identifier 4894716), containing a Kozak consensus sequence, and a reverse primer corresponding to nucleotides 2406-2413 of human PDE10A2 (Accession No. AF127480, Genbank Identifier 4894716). Amplification with Easy-A polymerase (Stratagene, La Jolla, Calif.) was 95° C. for 2 minutes followed by thirty three cycles of 95° C. for 40 seconds, 55° C. for 30 seconds, and 72° C. for 2 minutes 48 seconds. Final extension was 72° C. for 7 minutes. The PCR product was TA cloned into pcDNA3.2-TOPO (Invitrogen, Carlsbad, Calif.) according to standard protocol. AD293 cells with 70-80% confluency were transiently transfected with human PDE10A2/pcDNA3.2-TOPO using Lipofectamine 2000 according to manufacturer specifications (Invitrogen, Carlsbad, Calif.). Cells were harvested 48 hours post-transfection and lysed by sonication (setting 3, 10×5 sec pulses) in a buffer containing 20 mM HEPES, 1 mM EDTA and protease inhibitor cocktail (Roche). Lysate was collected by centrifugation at 75,000×g for 20 minutes. Supernatant containing the cytoplasmic fraction was used for evaluation of PDE10A2 activity. The fluorescence polarization assay for cyclic nucleotide phosphodiesterases was performed using an IMAP® FP kit supplied by Molecular Devices, Sunnyvale, Calif. (product #R8139). IMAP® technology has been applied previously to phosphodiesterase assays (Huang, W., et al., J. Biomol Screen, 2002, 7: 215). Assays were performed at room temperature in 384-well microtiter plates with an incubation volume of 20.2 μL. Solutions of test compounds were prepared in DMSO and serially diluted with DMSO to yield 8 μL of each of 10 solutions differing by 3-fold in concentration, at 32 serial dilutions per plate. 100% inhibition is determined using a known PDE10 inhibitor, which can be any compound that is present at 5,000 times its Ki value in the assay described as follows, such as papaverine (see Siuciak, et al. Neuropharmacology (2006) 51:386-396; Becker, et al. Behav Brain Res (2008) 186(2):155-60; Threlfell, et al., J Pharmacol Exp Ther (2009) 328(3):785-795), 2-{4-[pyridin-4-yl-1-(2,2,2-trifluoroethyl)-1H-pyrazol-3-yl]phenoxymethyl}quinoline succinic acid or 2-[4-(1-methyl-4-pyridin-4-yl-1H-pyrazol-3-yl)-phenoxymethyl]quinoline succinic acid (see Schmidt, et al. J Pharmacol Exp Ther (2008) 325:681-690; Threlfell, et al., J Pharmacol Exp Ther (2009) 328(3): 785-795), 0% of inhibition is determined by using DMSO (1% final concentrations).
A Labcyte Echo 555 (Labcyte, Sunnyvale, Calif.) is used to dispense […] from each well of the titration plate to the 384 well assay plate. A solution of enzyme (1/1600 dilution from aliquots; sufficient to produce 20% substrate conversion) and a separate solution of FAM-labeled cAMP PDE from Molecular Devices (product #R7506), at a final concentration of 50 nM are made in the assay buffer (10 mM Tris HCl, pH 7.2, 10 mM MgCl2, 0.05% NaN3 0.01% Tween-20, and 1 mM DTT). The enzyme and the substrate are then added to the assay plates in two consecutive additions of 10 μL, and then shaken to mix. The reaction is allowed to proceed at room temperature for 30 minutes. A binding solution is then made from the kit components, comprised of 80% Solution A, 20% Solution B and binding reagent at a volume of 1/600 the total binding solution. […]
In general terms: In fluorescence polarisation assays a small probe gives low polarisation when free and higher when bound to something large.
Consider `COc1ccc(-n2c(CCN3Cc4cccc(OC(C)C)c4C3=O)nc3ccccc3c2=O)cc1` (single isomer, unassigned) [Compound B-6, 3-(4-methoxyphenyl)-2-{2-[1-oxo-7-(propan-2-yloxy)-1,3-dihydro-2H-isoindol-2-yl]ethyl}quinazolin-4(3H)-one], for which the Ki amounted to 2.9 nM.
The result for `COc1ccc(-n2c(CCN3Cc4c(Br)cccc4C3=O)nc3ccccc3c2=O)cc1` [Compound A-3, 2-[2-(4-bromo-1-oxo-1,3-dihydro-2H-isoindol-2-yl)ethyl]-3-(4-methoxyphenyl)quinazolin-4(3H)-one] reads 16 nM.
Regarding `CC(CN1Cc2c(cccc2-c2ncco2)C1=O)c1cn2ccccc2n1` (centres unmarked) [Compound E-5, 2-[2-(imidazo[1,2-a]pyridin-2-yl)propyl]-4-(1,3-oxazol-2-yl)-2,3-dihydro-1H-isoindol-1-one], the Ki is 5.7 nM.
`O=C1c2cccc(-c3ncco3)c2CN1CC1CC1c1cn2ccccc2n1` (centres unmarked) [Compound M-6, 2-((2-(imidazo[1,2-a]pyridin-2-yl)cyclopropyl)methyl)-4-(oxazol-2-yl)isoindolin-1-one]: the Ki is 0.14 nM.
Take `O=C1c2cccc(-n3cccn3)c2CN1CCc1ccc2ccccc2n1` [Compound 1-17, 4-(1H-pyrazol-1-yl)-2-[2-(quinolin-2-yl)ethyl]-2,3-dihydro-1H-isoindol-1-one]: the Ki amounted to 0.46 nM.
Take `Cn1cc(CNc2cc3c(c(-c4ncco4)n2)CN(CCc2cn4ccccc4n2)C3=O)cn1` [Compound J-9]: the Ki turned out to be 11.2 nM.
For `COc1ccc(-n2c(CCN3Cc4c(cccc4-c4ncco4)C3=O)nc3ccccc3c2=O)cc1` [Compound A-4, 3-(4-methoxyphenyl)-2-{2-[4-(1,3-oxazol-2-yl)-1-oxo-1,3-dihydro-2H-isoindol-2-yl]ethyl}quinazolin-4(3H)-one] the value was 0.19 nM; for `Cn1cc(-c2cccc3c2CN(CCc2ccc4ncccc4n2)C3=O)nn1` [Compound H-2, 4-(1-methyl-1H 1,2,3-triazol-4-yl)-2-[2-(1,5-naphthyridin-2-yl)ethyl]isoindolin-1-one], 50 nM; for `Cc1ccc([C@@H]2C[C@H]2CN2Cc3c(cccc3-n3cccn3)C2=O)nc1` (single isomer, unassigned) [Compound 1-54, 2-{[(1S,2S) or (1R,2R)-2-(5-methylpyridin-2-yl)cyclopropyl]methyl}-4-(1H-pyrazol-1-yl)-2,3-dihydro-1H-isoindol-1-one], 0.86 nM.
For `O=C1c2cccc(-c3nccs3)c2CN1CCc1csc(-c2ccn[nH]2)n1` [Compound 1-40, 2-(2-(2-(1H-pyrazol-5-yl)thiazol-4-yl)ethyl)-4-(thiazol-2-yl)isoindolin-1-one], the Ki was determined as 5.8 nM.
As to `O=C1c2cc(O)cc(Br)c2CN1CCc1ccc2ncccc2n1` [Compound I-4, 4-Bromo-6-hydroxy-2-[2-(1,5naphthyridin-2-yl)ethyl]isoindolin-1-one], the Ki worked out at 17.2 nM.
Take `Cc1ccc([C@@H]2C[C@H]2CN2Cc3c(cccc3-c3ncco3)C2=O)nc1` (single isomer, unassigned) [Compound 1-50, 2-{[(1S,2S) or (1R,2R)-2-(5-methylpyridin-2-yl)cyclopropyl]methyl}-4-(1,3-oxazol-2-yl)-2,3-dihydro-1H-isoindol-1-one]: the Ki was found to be 0.61 nM.
Regarding `COc1ccc(-n2c(CCN3Cc4c(OC(C)C)cccc4C3=O)nc3ccccc3c2=O)cc1` (single isomer, unassigned) [Compound B-7, 3-(4-methoxyphenyl)-2-{2-[1-oxo-4-(propan-2-yloxy)-1,3-dihydro-2H-isoindol-2-yl]ethyl}quinazolin-4(3H)-one], the Ki was 1.2 nM.
For `COc1ccc(-c2cc3ccccc3nc2CCN2Cc3c(cccc3-c3ncco3)C2=O)cc1` [Compound C-5, 2-{2-[3-(4-methoxyphenyl)quinolin-2-yl]ethyl}-4-(1,3-oxazol-2-yl)-2,3-dihydro-1H-isoindol-1-one] the value was 0.011 nM; for `O=C1c2cccc(-c3cscn3)c2CN1CCc1csc(-c2ccn[nH]2)n1` [Compound K-4, 2-(2-(2-(1H-pyrazol-5-yl)thiazol-4-yl)ethyl)-4-(thiazol-4-yl)isoindolin-1-one], 0.31 nM; for `O=C1c2cccc(-c3cscn3)c2CN1CCc1ccc2c(n1)CCCC2O` (centres unmarked) [Compound 1-28, 2-[2-(5-hydroxy-5,6,7,8-tetrahydroquinolin-2-yl)ethyl]-4-(1,3-thiazol-4-yl)-2,3-dihydro-1H-isoindol-1-one], 1.2 nM.
For the compound `O=C1c2cccc(-n3cccn3)c2CN1CCc1ccc2ncccc2n1` [Compound D-4, 2-[2-(1,5-naphthyridin-2-yl)ethyl]-4-(1H-pyrazol-1-yl)-2,3-dihydro-1H-isoindol-1-one], the Ki was found to be 10.9 nM.
The result for `O=C1c2cccc(-c3ncco3)c2CN1CCc1ccc2c(n1)CCCC2O` (centres unmarked) [Compound 1-29, 2-[2-(5-hydroxy-5,6,7,8-tetrahydroquinolin-2-yl)ethyl]-4-(1,3-oxazol-2-yl)-2,3-dihydro-1H-isoindol-1-one] reads 4.6 nM; that for `O=C1c2cccc(-c3ncco3)c2CN1CCc1ccc2c(n1)CCCC2` [Compound F-6, 4-(1,3-oxazol-2-yl)-2-[2-(5,6,7,8-tetrahydroquinolin-2-yl)ethyl]-2,3-dihydro-1H-isoindol-1-one], 2.3 nM.
The result for `O=C1c2cccc(-c3cscn3)c2CN1CCc1nc2ccccc2cc1C1CC1` [Compound 1-27, 2-[2-(3-cyclopropylquinolin-2-yl)ethyl]-4-(1,3-thiazol-4-yl)-2,3-dihydro-1H-isoindol-1-one] reads 0.1 nM.
